Consider one compound from patent US8802705B2, “Pharmaceutical containing PPAR delta agonist” (Senju Pharmaceutical Co., Ltd., priority 2007, dated 2014).

In assay [1] the test system is Normal human corneal epithelial cells. Briefly: Effect on increase of cell number of normal human corneal epithelial cells (Experimental Example 1, Cell Counting Kit-8). The class given is cell-based. To be noted: for cell number increase rate: 24 hr stimulation, relative to non-addition group = 100%, mean ± SD, N = 3-4. How it is done:
Normal human corneal epithelial cells (KURABO) were used.
As a test substance, [3-[2-[4-isopropyl-2-(4-trifluoromethyl)phenyl-5-thiazolyl]ethyl]-5-methyl-1,2-benzisoxazol-6-yl]oxyacetic acid (hereinafter to be referred to as compound A) was used. Compound A was dissolved in ethanol (Wako Pure Chemical Industries, Ltd.) to a concentration 200-fold of the final concentration in a culture medium, and the solution was stored at −80° C. until immediately before use.
As a cell culture medium for consideration of the cell number-increasing effect by compound A, a culture medium (basal medium) obtained by adding insulin, hydrocortisone and transferrin contained in HCGS growth additive set (KURABO) to EpiLife (KURABO) was used.
Normal human corneal epithelial cells cryopreserved in liquid nitrogen were thawed and the cell number was counted. The total amount thereof was transferred to EpiLife added with all of the HCGS growth additive set (insulin, epidermal growth factor mEGF derived from mouse, hydrocortisone, transferrin, bovine brain hypophysis extract) (4 mL, complete medium), and suspended well therein. The cell suspension was seeded on a fibronectin-coated 24 well plate (Becton Dickinson) at a cell number of 2×10^4 cells/500 μL/well (1×10^4 cells/cm^2 since bottom area was 2 cm^2).
After completion of cell seeding, the culture plate was incubated in an incubator set to 37° C., 5% CO2, 95% air and 100% humidity for 24 hr, and the culture medium was changed to 400 μL of the basal medium (EpiLife added with insulin, hydrocortisone and transferrin from HCGS growth additives).
After 24 hr thereafter, the culture medium was changed to the following culture medium (each 400 μL). • [1] basal medium alone (non-addition group) • [2] basal medium+mEGF (final concentration: 1 ng/mL; positive control group) • [3] basal medium+compound A (final concentration: 0.1 nM, 1 nM, 0.01 μM, 0.1 μM; compound A addition group)
Ethanol (5 μL) was added to 1 mL each of culture media and [2] to uniformly set the ethanol concentration of all culture media to 0.5%.
After 24 hr from the start of the stimulation with compound A, the culture supernatant was removed from each well, and a basal medium added with 10% Cell Counting Kit-8 (DOJINDO) was dispensed to each well by 200 μL. After dispensing, the culture plate was transferred to an incubator set to 37° C., 5% CO2, 95% air and 100% humidity and incubated for 2 hr. The supernatant (100 μL) was transferred to a 96 well culture plate for tissue culture (Corning), and the absorbance of each well at 450 nm was measured with a microplate reader (Dainippon Sumitomo Pharma Co., Ltd.), and used as an index of cell number increase.
The values of the positive control group and the compound A addition group were calculated based on the average absorbance of the non-addition group as 100%, and the non-addition group was compared with the compound A addition group and positive control group according to the Dunnett multiple comparison test (one-tailed). A critical value of less than 5% as a result of the test was judged as significant.

Assay [2] has as its system corneal epithelial defect. Kind of assay: Promoting action on corneal epithelial wound healing after corneal epithelial scraping (Experimental Example 2). To be noted: rabbit; for ratio of the remaining corneal epithelial defect: mean ± SD, N = 6. The class given is in vivo, Japanese white rabbits. As to the method: Male Japanese white rabbits (KITAYAMA LABES Co., Ltd.) were used. The experimental animals were used according to the International Guiding Principles for Biomedical Research involving Animals.
Compound A was used as a test substance. Compound A was dissolved in the following vehicle at 0.0005% or suspended in the following vehicle at 0.005% and used as an instillation.
As a control for the compound A administration group, the above-mentioned vehicle instillation group free of medicament was used.
Animals received intramuscular injection (1 mL/kg) of a Selactal (2% xylazine; Bayer, Ltd.): Ketalar (5% ketamine; DAIICHI SANKYO COMPANY, LIMITED)=1:1 mixture for systemic anesthesia, and oxybuprocaine hydrochloride instillation (Benoxil instillation 0.4%; Santen Pharmaceutical CO., Ltd.) and then the eyeballs were exposed. Using a trephine with a diameter of 10 mm, a mark (diameter 10 mm) was stamped on the corneal epithelium in the central part of the cornea, and the entire corneal epithelial layer within the marked circle was scraped off with a handy rooter under a stereomicroscope. After scraping, the corneal surface was washed with physiological saline (OTSUKA PHARMACEUTICAL FACTORY, INC.), and the corneal epithelial scraping treatment was completed by placing the eyeball back in the orbitae.
Compound A instillation or an instillation vehicle was instilled by 50 μL each time into the treated eye with a micropipette twice a day on the day of corneal epithelial scraping and four times a day from the next day to the completion of the test.
Using the time point when the corneal epithelial scraping was completed in all animals as a test starting time (0 hr), the area of corneal epithelium defect was quantified 40, 48, 56 and 64 hr later, based on which wound healing of the corneal epithelium was evaluated. To be precise, 0.1% fluorescein sodium (Wako Pure Chemical Industries, Ltd.) solution (10 μL) was instilled into the treated eye at each time point, and the anterior ocular segment of the animals was immediately photographed using a slit lamp with a blue filter, whereby the fluorescein-stained corneal epithelial deficient region was recorded. The developed photograph was stored as digital images on a computer, and the area of the fluorescein-stained corneal epithelial defect was measured using an image analysis software (Image-Pro Plus).
The area of the fluorescein-stained corneal epithelial defect measured at each time point was calculated based on the initial value of each animal as 100%, and taken as the ratio of the remaining corneal epithelial defect. The ratio of the remaining corneal epithelial defect at each time point was compared between the vehicle instillation group and compound A instillation group using the t-test. A critical value of less than 5% as a result of the test was judged as significant.

In the case of `Cc1cc2c(CCc3sc(-c4ccc(C(F)(F)F)cc4)nc3C(C)C)noc2cc1OCC(=O)O` [compound A, [3-[2-[4-isopropyl-2-(4-trifluoromethyl)phenyl-5-thiazolyl]ethyl]-5-methyl-1,2-benzisoxazol-6-yl]oxyacetic acid], in assay [1] (0.1 nM-0.1 μM, conclusion of the test), the “effect on cell number of normal human corneal epithelial cells (in words)” value is reported as “increases the cell number of normal human corneal epithelial cells”. Further, the “cell number increase rate” value in assay [1] (10^−7 M) is listed as 172.6 ± 16.0%; in assay [1] (10^−8 M), 187.4 ± 10.2%; in assay [1] (10^−9 M) it was 169.0 ± 8.2%; in assay [1] (10^−10 M) it was 177.4 ± 20.8%. For the same compound, the “ratio of the remaining corneal epithelial defect” value in assay [2] (0.0005% instillation, 0 hr (initial value)) was determined as 100.0 ± 0.0%; in assay [2] (0.0005% instillation, 40 hr later, initial value = 100%), 24.8 ± 2.7%; in assay [2] (0.0005% instillation, 48 hr later, initial value = 100%) it was 11.8 ± 2.9 %; in assay [2] (0.0005% instillation, 56 hr later, initial value = 100%) it was 3.8 ± 2.8%; in assay [2] (0.0005% instillation, 64 hr later, initial value = 100%) it was 0.8 ± 1.4%; in assay [2] (0.005% instillation, 0 hr (initial value)) it was 100.0 ± 0.0%. The “ratio of the remaining corneal epithelial defect” value came to 18.6 ± 8.0 % in assay [2] (0.005% instillation, 40 hr later, initial value = 100%); 9.1 ± 6.4 % in assay [2] (0.005% instillation, 48 hr later, initial value = 100%); 3.4 ± 3.7% in assay [2] (0.005% instillation, 56 hr later, initial value = 100%); 0.9 ± 1.3% in assay [2] (0.005% instillation, 64 hr later, initial value = 100%). The “effect on wound healing of corneal epithelial defect (in words)” value in assay [2] (instillation 0.0005% or 0.005%, conclusion of the test) was “promotes wound healing of corneal epithelial defect”.
